The structures appear in SMILES notation. Calls of active or inactive are those of the source. No cut-off for these calls is given here.

System in one experiment: not listed separately
As to the kind of experiment: (§1) Activity at Insulin receptor in mouse 3T3-L1 cells assessed as glucose uptake. The experiment is classed as cell-based.
Broadly, the EC50 is the concentration giving half of the maximal effect. With `O=C(Nc1cc(C(=O)Nc2cccc3cc(S(=O)(=O)O)ccc23)cc(C(=O)Nc2cccc3cc(S(=O)(=O)O)ccc23)c1)c1cccc([N+](=O)[O-])c1`, the EC50 was 44.5 µM.
Still for that read-out and setting: in the case of `O=C(Nc1cc(C(=O)Nc2cccc3ccccc23)cc(C(=O)Nc2cccc3cc(S(=O)(=O)O)ccc23)c1)c1cccc(Cl)c1` it was 66.5 µM; in that of `O=C(Nc1cc(C(=O)Nc2cccc3cc(S(=O)(=O)O)ccc23)cc(C(=O)Nc2cccc3cc(S(=O)(=O)O)ccc23)c1)c1ccc2ccccc2c1`, 3.7 µM; in that of `O=C(Nc1cc(C(=O)Nc2cccc3cc(O)ccc23)cc(C(=O)Nc2cccc3cc(S(=O)(=O)O)ccc23)c1)c1cccc(Cl)c1`, 61.7 µM.
The same measure, in the same setting: to `O=C(Nc1cccc2cc(S(=O)(=O)O)ccc12)c1cc(NC(=O)c2cccc3ccccc23)cc(C(=O)Nc2cccc3cc(S(=O)(=O)O)ccc23)c1` belongs 12.8 µM.
Take `O=C(Nc1cccc2cc(S(=O)(=O)O)ccc12)c1cc(C(=O)Nc2cccc3cc(S(=O)(=O)O)ccc23)cc(C(=O)Nc2cccc3cc(S(=O)(=O)O)ccc23)c1`: the EC50 was determined as 135 µM.
For the compound `O=C(Nc1cc(C(=O)Nc2cccc3cc(S(=O)(=O)O)ccc23)cc(C(=O)Nc2cccc3cc(S(=O)(=O)O)ccc23)c1)c1cccc(F)c1`, the EC50 was 19.4 µM.
Still for that read-out and setting: in the case of `O=C(Nc1cc(C(=O)Nc2cccc3cc(S(=O)(=O)O)ccc23)cc(C(=O)Nc2cccc3cc(S(=O)(=O)O)ccc23)c1)c1cccc(Cl)c1` it was 5.7 µM; in that of `O=C(Nc1ccc2c(O)c(/N=N/c3ccc(/N=N/c4ccc(S(=O)(=O)O)cc4)cc3S(=O)(=O)O)c(S(=O)(=O)O)cc2c1)Nc1ccc2c(O)cc(S(=O)(=O)O)c(/N=N/c3ccc(/N=N/c4ccc(S(=O)(=O)O)cc4)cc3S(=O)(=O)O)c2c1`, 90 µM; in that of `O=C(Nc1cc(C(=O)Nc2cccc3cc(S(=O)(=O)O)ccc23)cc(C(=O)Nc2cccc3cc(S(=O)(=O)O)ccc23)c1)c1ccc(F)cc1`, 78.5 µM.
As for `O=C(Nc1cc(C(=O)Nc2cccc3cc(S(=O)(=O)O)ccc23)cc(C(=O)Nc2cccc3cc(S(=O)(=O)O)ccc23)c1)c1ccc(Cl)cc1`, the EC50 stood at 72.8 µM.

For a further experiment, the system named is 3T3-L1. The description is as §1. In kind it is cell-based.
Consider `O=C(Cc1cccc(Cl)c1)Nc1cc(C(=O)Nc2cccc3cc(S(=O)(=O)O)ccc23)cc(C(=O)Nc2cccc3cc(S(=O)(=O)O)ccc23)c1`, for which the result was inactive.
As to `O=C(Nc1cccc2cc(S(=O)(=O)O)ccc12)c1cc(NC(=O)C2CCCCC2)cc(C(=O)Nc2cccc3cc(S(=O)(=O)O)ccc23)c1`, the outcome was inactive.
As to `O=C(Nc1cc(C(=O)Nc2cccc3cc(S(=O)(=O)O)ccc23)cc(C(=O)Nc2cccc3cc(S(=O)(=O)O)ccc23)c1)c1ccc([N+](=O)[O-])cc1`, the result was inactive.
For `O=C(Nc1cccc2cc(S(=O)(=O)O)ccc12)c1cc(NC(=O)c2ccco2)cc(C(=O)Nc2cccc3cc(S(=O)(=O)O)ccc23)c1`, the outcome was inactive.
In the case of `O=C(Nc1cc(C(=O)Nc2cccc3cc(S(=O)(=O)O)ccc23)cc(C(=O)Nc2cccc3cc(S(=O)(=O)O)ccc23)c1)c1ccncc1`, the outcome was inactive.
Still for that read-out and setting: to `O=C(Nc1cccc2cc(S(=O)(=O)O)ccc12)c1cc(NS(=O)(=O)c2ccc(F)cc2)cc(C(=O)Nc2cccc3cc(S(=O)(=O)O)ccc23)c1` belongs “inactive”; to `O=C(Nc1cc(C(=O)Nc2cccc3cc(S(=O)(=O)O)ccc23)cc(C(=O)Nc2cccc3cc(S(=O)(=O)O)ccc23)c1)c1cccnc1`, “inactive”.
Still for that read-out and setting: to `O=C(Nc1cccc2cc(S(=O)(=O)O)ccc12)c1cc(NC(=O)c2cnc3ccccc3n2)cc(C(=O)Nc2cccc3cc(S(=O)(=O)O)ccc23)c1` belongs “inactive”.
Still for that read-out and setting: to `O=C(Nc1cccc(Cl)c1)Nc1cc(C(=O)Nc2cccc3cc(S(=O)(=O)O)ccc23)cc(C(=O)Nc2cccc3cc(S(=O)(=O)O)ccc23)c1` belongs “inactive”.

For the origin of these results see ChEMBL document CHEMBL1145595, “5-Substituted isophthalamides as insulin receptor sensitizers” (Bioorg Med Chem Lett, 2008).
